What was measured:
[1] = target: Serine/threonine-protein kinase Nek5 (Homo sapiens) (UniProt Q6P3R8); details: Compound concentration 1000.0 nM
[2] = test system: Tyrosine-protein kinase ABL1 (Homo sapiens), P00519 [H396P]; details: Compound concentration 1000.0 nM
[3] = target: Calcium/calmodulin-dependent protein kinase type IV (Homo sapiens) (UniProt Q16566); details: Compound concentration 1000.0 nM
[4] = target: Leucine-rich repeat serine/threonine-protein kinase 2 (Homo sapiens) (UniProt Q5S007); details: Compound concentration 1000.0 nM
[5] = target: Dual specificity mitogen-activated protein kinase kinase 7 (Homo sapiens) (UniProt O14733); details: Compound concentration 1000.0 nM
[6] = test system: Phosphatidylinositol 4,5-bisphosphate 3-kinase catalytic subunit alpha isoform (Homo sapiens), P42336 [Q546K]; details: Compound concentration 1000.0 nM
[7] = target: Muscarinic acetylcholine receptor M3 (Homo sapiens) (UniProt P20309); details: Compound concentration 10.0 uM
[8] = target: SRSF protein kinase 2 (Homo sapiens) (UniProt P78362); details: Compound concentration 1000.0 nM
[9] = test system: Mast/stem cell growth factor receptor Kit (Homo sapiens), P10721 [A829P]; details: Compound concentration 1000.0 nM
[10] = target: Calcium/calmodulin-dependent protein kinase type 1 (Homo sapiens) (UniProt Q14012); details: Compound concentration 1000.0 nM
[11] = target: Serine/threonine-protein kinase tousled-like 2 (Homo sapiens) (UniProt Q86UE8); details: Compound concentration 1000.0 nM
[12] = target: Cyclin-dependent kinase 19 (Homo sapiens) (UniProt Q9BWU1); details: Compound concentration 1000.0 nM
[13] = target: Tyrosine-protein kinase Lck (Homo sapiens) (UniProt P06239); details: Compound concentration 1000.0 nM
[14] = target: Serine/threonine-protein kinase SIK2 (Homo sapiens) (UniProt Q9H0K1); details: Compound concentration 1000.0 nM
[15] = target: AP2-associated protein kinase 1 (Homo sapiens) (UniProt Q2M2I8); details: Compound concentration 1000.0 nM
[16] = target: Serine/threonine-protein kinase LATS1 (Homo sapiens) (UniProt O95835); details: Compound concentration 1000.0 nM
[17] = target: Dual specificity protein kinase CLK4 (Homo sapiens) (UniProt Q9HAZ1); details: Compound concentration 1000.0 nM
[18] = target: Leukocyte tyrosine kinase receptor (Homo sapiens) (UniProt P29376); details: Compound concentration 1000.0 nM
[19] = target: Serine/threonine-protein kinase DCLK1 (Homo sapiens) (UniProt O15075); details: Compound concentration 1000.0 nM
[20] = target: Ephrin type-B receptor 6 (Homo sapiens) (UniProt O15197); details: Compound concentration 1000.0 nM
[21] = test system: Receptor-type tyrosine-protein kinase FLT3 (Homo sapiens), P36888 [R834Q]; details: Compound concentration 1000.0 nM
[22] = target: Mast/stem cell growth factor receptor Kit (Homo sapiens) (UniProt P10721); details: Compound concentration 1000.0 nM
[23] = test system: Tyrosine-protein kinase ABL1 (Homo sapiens), P00519 [M351T]; details: Compound concentration 1000.0 nM
[24] = target: Mitogen-activated protein kinase kinase kinase 9 (Homo sapiens) (UniProt P80192); details: Compound concentration 1000.0 nM
[25] = target: 3-phosphoinositide-dependent protein kinase 1 (Homo sapiens) (UniProt O15530); details: Compound concentration 1000.0 nM
[26] = target: Serine/threonine-protein kinase SIK3 (Homo sapiens) (UniProt Q9Y2K2); details: Compound concentration 1000.0 nM
[27] = target: Serine/threonine-protein kinase TNNI3K (Homo sapiens) (UniProt Q59H18); details: Compound concentration 1000.0 nM
[28] = target: LIM domain kinase 2 (Homo sapiens) (UniProt P53671); details: Compound concentration 1000.0 nM
[29] = test system: Receptor-type tyrosine-protein kinase FLT3 (Homo sapiens), P36888 [UNDEFINED MUTATION]; details: Compound concentration 1000.0 nM
[30] = target: Serine/threonine-protein kinase WNK2 (Homo sapiens) (UniProt Q9Y3S1); details: Compound concentration 1000.0 nM
[31] = target: Ephrin type-A receptor 1 (Homo sapiens) (UniProt P21709); details: Compound concentration 1000.0 nM
[32] = test system: Mast/stem cell growth factor receptor Kit (Homo sapiens), P10721 [V559D]; details: Compound concentration 1000.0 nM
[33] = target: Serine/threonine-protein kinase Nek2 (Homo sapiens) (UniProt P51955); details: Compound concentration 1000.0 nM
[34] = target: Tyrosine-protein kinase receptor UFO (Homo sapiens) (UniProt P30530); details: Compound concentration 1000.0 nM
[35] = test system: Epidermal growth factor receptor (Homo sapiens), P00533 [UNDEFINED MUTATION]; details: Compound concentration 1000.0 nM
[36] = target: Peripheral plasma membrane protein CASK (Homo sapiens) (UniProt O14936); details: Compound concentration 1000.0 nM
[37] = target: Serine/threonine-protein kinase Nek11 (Homo sapiens) (UniProt Q8NG66); details: Compound concentration 1000.0 nM
[38] = target: Receptor tyrosine-protein kinase erbB-4 (Homo sapiens) (UniProt Q15303); details: Compound concentration 1000.0 nM
[39] = target: NUAK family SNF1-like kinase 2 (Homo sapiens) (UniProt Q9H093); details: Compound concentration 1000.0 nM
[40] = target: Microtubule-associated serine/threonine-protein kinase 1 (Homo sapiens) (UniProt Q9Y2H9); details: Compound concentration 1000.0 nM
[41] = target: Mitogen-activated protein kinase kinase kinase 10 (Homo sapiens) (UniProt Q02779); details: Compound concentration 1000.0 nM
[42] = target: Calcium/calmodulin-dependent protein kinase kinase 2 (Homo sapiens) (UniProt Q96RR4); details: Compound concentration 1000.0 nM
[43] = target: Receptor-interacting serine/threonine-protein kinase 4 (Homo sapiens) (UniProt P57078); details: Compound concentration 1000.0 nM
[44] = target: Wee1-like protein kinase 2 (Homo sapiens) (UniProt P0C1S8); details: Compound concentration 1000.0 nM

Chain of Calcium/calmodulin-dependent protein kinase type IV (Homo sapiens) (Q16566 whole entry): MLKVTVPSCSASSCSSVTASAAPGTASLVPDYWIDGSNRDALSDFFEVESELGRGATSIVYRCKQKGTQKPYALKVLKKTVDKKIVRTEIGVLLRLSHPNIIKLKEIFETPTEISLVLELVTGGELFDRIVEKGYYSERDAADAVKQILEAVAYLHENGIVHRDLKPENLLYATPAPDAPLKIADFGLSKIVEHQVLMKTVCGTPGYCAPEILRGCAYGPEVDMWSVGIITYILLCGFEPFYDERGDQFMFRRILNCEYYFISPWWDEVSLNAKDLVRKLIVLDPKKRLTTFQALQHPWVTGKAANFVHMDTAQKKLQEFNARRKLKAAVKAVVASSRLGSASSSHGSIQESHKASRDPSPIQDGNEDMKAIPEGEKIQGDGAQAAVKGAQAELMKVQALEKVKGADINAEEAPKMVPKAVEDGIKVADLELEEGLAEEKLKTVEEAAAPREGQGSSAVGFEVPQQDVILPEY
Chain of Leukocyte tyrosine kinase receptor (Homo sapiens) (P29376 whole entry): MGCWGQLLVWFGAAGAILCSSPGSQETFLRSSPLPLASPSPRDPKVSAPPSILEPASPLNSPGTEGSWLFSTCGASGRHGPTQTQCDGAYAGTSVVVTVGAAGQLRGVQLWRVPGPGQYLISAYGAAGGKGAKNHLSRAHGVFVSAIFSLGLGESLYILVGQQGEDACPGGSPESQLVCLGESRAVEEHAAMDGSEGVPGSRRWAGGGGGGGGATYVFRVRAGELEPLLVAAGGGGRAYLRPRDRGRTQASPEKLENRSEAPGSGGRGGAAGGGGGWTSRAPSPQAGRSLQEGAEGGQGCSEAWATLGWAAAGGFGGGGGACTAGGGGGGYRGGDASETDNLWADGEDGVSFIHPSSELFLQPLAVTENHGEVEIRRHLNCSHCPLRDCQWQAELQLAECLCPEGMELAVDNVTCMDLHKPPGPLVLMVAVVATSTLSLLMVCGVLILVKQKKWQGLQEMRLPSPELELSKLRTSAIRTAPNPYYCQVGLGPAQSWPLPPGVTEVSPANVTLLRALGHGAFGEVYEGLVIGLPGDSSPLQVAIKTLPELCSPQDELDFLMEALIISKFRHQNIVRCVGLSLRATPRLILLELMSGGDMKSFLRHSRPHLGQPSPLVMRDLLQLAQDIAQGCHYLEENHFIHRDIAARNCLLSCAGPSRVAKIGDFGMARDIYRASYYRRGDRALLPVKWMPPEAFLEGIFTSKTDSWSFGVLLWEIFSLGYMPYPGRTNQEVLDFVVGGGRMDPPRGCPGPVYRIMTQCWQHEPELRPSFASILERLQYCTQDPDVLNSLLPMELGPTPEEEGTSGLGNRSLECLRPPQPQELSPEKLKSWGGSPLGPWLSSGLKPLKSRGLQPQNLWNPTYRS
Chain of NUAK family SNF1-like kinase 2 (Homo sapiens) (Q9H093 whole entry): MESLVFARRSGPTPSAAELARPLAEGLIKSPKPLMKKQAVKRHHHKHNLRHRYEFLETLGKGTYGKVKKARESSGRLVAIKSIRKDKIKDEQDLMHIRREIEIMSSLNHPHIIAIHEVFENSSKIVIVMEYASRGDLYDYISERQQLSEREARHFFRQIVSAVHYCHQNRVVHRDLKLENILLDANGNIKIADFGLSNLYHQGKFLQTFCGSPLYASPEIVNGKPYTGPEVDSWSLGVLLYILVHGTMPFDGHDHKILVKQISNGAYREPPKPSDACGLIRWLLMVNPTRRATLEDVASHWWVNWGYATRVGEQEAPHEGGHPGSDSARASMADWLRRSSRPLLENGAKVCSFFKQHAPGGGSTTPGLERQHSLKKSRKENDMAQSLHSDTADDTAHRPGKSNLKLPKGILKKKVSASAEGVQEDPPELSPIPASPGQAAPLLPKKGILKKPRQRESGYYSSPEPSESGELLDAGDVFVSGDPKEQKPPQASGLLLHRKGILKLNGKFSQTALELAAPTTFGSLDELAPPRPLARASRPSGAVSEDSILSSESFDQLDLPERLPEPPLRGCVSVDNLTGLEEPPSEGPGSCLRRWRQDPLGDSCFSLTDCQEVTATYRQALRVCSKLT
Chain of 3-phosphoinositide-dependent protein kinase 1 (Homo sapiens) (O15530 whole entry): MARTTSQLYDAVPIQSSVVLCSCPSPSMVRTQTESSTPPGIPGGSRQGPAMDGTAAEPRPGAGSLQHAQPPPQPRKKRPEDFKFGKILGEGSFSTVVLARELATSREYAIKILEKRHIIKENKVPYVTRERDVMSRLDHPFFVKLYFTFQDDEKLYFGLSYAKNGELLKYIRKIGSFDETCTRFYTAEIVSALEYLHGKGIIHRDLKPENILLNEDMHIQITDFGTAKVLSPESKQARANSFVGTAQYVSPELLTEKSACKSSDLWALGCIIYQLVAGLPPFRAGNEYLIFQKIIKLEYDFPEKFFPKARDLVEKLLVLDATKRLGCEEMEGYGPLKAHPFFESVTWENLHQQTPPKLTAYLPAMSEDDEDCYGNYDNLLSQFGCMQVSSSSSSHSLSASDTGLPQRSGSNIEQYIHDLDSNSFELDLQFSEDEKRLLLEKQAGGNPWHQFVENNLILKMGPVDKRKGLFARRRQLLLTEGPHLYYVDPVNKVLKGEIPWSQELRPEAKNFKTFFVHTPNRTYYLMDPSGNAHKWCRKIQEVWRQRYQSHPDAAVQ
Chain of Leucine-rich repeat serine/threonine-protein kinase 2 (Homo sapiens) (Q5S007 whole entry): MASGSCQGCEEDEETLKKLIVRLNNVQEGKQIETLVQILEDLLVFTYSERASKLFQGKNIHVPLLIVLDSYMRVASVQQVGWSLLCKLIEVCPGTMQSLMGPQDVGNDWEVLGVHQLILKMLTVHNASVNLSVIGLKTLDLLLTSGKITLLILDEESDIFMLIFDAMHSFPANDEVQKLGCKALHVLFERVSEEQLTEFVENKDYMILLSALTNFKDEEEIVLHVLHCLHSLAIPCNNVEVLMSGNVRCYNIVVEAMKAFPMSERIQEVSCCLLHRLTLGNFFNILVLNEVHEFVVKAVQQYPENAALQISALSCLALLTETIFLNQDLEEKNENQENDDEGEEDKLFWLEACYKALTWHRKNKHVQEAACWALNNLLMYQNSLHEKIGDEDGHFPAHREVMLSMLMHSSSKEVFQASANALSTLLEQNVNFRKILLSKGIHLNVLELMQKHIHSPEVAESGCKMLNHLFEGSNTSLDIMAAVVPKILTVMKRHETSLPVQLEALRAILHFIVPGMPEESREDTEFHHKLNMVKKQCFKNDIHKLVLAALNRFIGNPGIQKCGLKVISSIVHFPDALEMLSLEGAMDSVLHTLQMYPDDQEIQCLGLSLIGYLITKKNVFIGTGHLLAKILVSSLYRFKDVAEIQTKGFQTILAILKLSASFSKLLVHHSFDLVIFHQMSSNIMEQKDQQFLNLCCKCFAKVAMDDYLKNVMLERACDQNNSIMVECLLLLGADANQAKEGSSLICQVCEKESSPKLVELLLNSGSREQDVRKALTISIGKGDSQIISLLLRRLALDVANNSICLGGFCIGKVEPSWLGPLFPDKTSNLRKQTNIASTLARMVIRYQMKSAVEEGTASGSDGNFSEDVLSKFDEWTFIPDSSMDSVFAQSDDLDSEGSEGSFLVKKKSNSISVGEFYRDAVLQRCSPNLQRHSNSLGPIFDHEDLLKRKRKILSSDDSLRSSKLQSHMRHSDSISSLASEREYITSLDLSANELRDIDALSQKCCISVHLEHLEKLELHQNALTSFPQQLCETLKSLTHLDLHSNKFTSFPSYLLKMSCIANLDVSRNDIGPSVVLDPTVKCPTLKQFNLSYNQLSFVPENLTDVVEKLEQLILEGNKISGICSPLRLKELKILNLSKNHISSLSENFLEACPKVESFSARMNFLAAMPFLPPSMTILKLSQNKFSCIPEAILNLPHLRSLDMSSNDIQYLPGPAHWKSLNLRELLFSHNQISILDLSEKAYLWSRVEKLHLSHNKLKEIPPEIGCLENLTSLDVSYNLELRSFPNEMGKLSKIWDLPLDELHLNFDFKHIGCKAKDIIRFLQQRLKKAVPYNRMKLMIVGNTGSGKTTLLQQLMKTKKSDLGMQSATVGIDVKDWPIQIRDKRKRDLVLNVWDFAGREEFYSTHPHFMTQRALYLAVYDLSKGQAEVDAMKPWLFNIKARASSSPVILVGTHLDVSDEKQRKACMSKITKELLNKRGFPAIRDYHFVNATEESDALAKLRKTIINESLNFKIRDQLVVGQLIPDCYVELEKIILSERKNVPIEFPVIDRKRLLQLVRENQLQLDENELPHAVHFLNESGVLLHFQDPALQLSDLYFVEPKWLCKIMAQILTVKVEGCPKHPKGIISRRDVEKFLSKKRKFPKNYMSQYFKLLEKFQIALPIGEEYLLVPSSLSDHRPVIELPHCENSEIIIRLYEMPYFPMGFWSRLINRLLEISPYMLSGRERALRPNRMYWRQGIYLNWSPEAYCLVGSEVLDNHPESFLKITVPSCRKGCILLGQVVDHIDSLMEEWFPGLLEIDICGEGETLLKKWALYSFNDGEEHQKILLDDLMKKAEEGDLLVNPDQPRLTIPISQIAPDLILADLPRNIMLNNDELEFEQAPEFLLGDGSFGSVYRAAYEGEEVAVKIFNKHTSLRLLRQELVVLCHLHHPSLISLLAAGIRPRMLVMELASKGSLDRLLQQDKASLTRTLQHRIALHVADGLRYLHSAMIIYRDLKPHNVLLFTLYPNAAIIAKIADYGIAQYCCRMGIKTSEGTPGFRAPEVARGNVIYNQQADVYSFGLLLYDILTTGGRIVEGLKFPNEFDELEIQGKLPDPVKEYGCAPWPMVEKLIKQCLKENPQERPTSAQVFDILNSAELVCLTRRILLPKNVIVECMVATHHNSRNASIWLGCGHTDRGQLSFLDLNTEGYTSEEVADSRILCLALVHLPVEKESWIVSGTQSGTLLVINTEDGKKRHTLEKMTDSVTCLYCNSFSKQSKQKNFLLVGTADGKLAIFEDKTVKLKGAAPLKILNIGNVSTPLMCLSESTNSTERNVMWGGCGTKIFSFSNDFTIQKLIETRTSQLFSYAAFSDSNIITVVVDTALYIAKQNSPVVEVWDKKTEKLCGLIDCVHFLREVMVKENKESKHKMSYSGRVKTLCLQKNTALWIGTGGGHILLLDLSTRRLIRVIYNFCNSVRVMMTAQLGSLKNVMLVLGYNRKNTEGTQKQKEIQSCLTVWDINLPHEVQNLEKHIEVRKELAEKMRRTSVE

Compound: CCCCN(CCCC)C(=O)CN1C[C@@H](c2cc(OC)c3c(c2)OCO3)[C@H](C(=O)O)[C@H]1CC(C)(C)CCC [A-545]
- residual activity [1]: 87.9%
- residual activity [2]: 100%
- residual activity [3]: 100%
- residual activity [4]: 65.9%
- residual activity [5]: 88.6%
- residual activity [6]: 100%
- inhibition [7]: 10.3%
- residual activity [8]: 100%
- residual activity [9]: 76.5%
- residual activity [10]: 100%
- residual activity [11]: 100%
- residual activity [12]: 99.6%
- residual activity [13]: 99.1%
- residual activity [14]: 100%
- residual activity [15]: 100%
- residual activity [16]: 75.2%
- residual activity [17]: 72.4%
- residual activity [18]: 94.1%
- residual activity [19]: 81.5%
- residual activity [20]: 87.7%
- residual activity [21]: 80.6%
- residual activity [22]: 94.9%
- residual activity [23]: 100%
- residual activity [24]: 98.8%
- residual activity [25]: 77.3%
- residual activity [26]: 74.8%
- residual activity [27]: 95.9%
- residual activity [28]: 86.8%
- residual activity [29]: 97.4%
- residual activity [30]: 99.3%
- residual activity [31]: 85.5%
- residual activity [32]: 100%
- residual activity [33]: 98.7%
- residual activity [34]: 87.2%
- residual activity [35]: 70.3%
- residual activity [36]: 90.5%
- residual activity [37]: 100%
- residual activity [38]: 95%
- residual activity [39]: 100%
- residual activity [40]: 100%
- residual activity [41]: 65.4%
- residual activity [42]: 87.2%
- residual activity [43]: 77.2%
- residual activity [44]: 89.1%

Compound: CCCCN(CCCC)C(=O)CN1C[C@H](c2cc(OC)c3c(c2)OCO3)[C@@H](C(=O)O)[C@@H]1CC(C)(C)CCC [ABT-546]
- residual activity [1]: 100%
- residual activity [2]: 96.1%
- residual activity [3]: 100%
- residual activity [4]: 38%
- residual activity [5]: 90.8%
- residual activity [6]: 67.3%
- inhibition [7]: -9.94%
- residual activity [8]: 100%
- residual activity [9]: 80.9%
- residual activity [10]: 100%
- residual activity [11]: 100%
- residual activity [12]: 100%
- residual activity [13]: 100%
- residual activity [14]: 100%
- residual activity [15]: 100%
- residual activity [16]: 100%
- residual activity [17]: 100%
- residual activity [18]: 100%
- residual activity [19]: 80.2%
- residual activity [20]: 100%
- residual activity [21]: 64.2%
- residual activity [22]: 92.3%
- residual activity [23]: 96.9%
- residual activity [24]: 100%
- residual activity [25]: 100%
- residual activity [26]: 60.5%
- residual activity [27]: 100%
- residual activity [28]: 100%
- residual activity [29]: 46.4%
- residual activity [30]: 60.2%
- residual activity [31]: 92.6%
- residual activity [32]: 96.1%
- residual activity [33]: 100%
- residual activity [34]: 100%
- residual activity [35]: 100%
- residual activity [36]: 70%
- residual activity [37]: 85.8%
- residual activity [38]: 100%
- residual activity [39]: 79.4%
- residual activity [40]: 100%
- residual activity [41]: 97%
- residual activity [42]: 100%
- residual activity [43]: 85.5%
- residual activity [44]: 100%

Source: ChEMBL document CHEMBL4507258 (2021)
